Test results published in ChEMBL document CHEMBL1201862, “PubChem BioAssay data set” (2004).
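Test compounds were applied to cells in 96-well plates for 48 hours at 5 doses. Abbreviation: GI50, concentration required for 50% inhibition of growth.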 Active and inactive are the calls of the source. Cut-off read from the data, not from the text of the source: active = GI50 up to about 1.1 µM and inactive = higher.

Assays:
Experiment in all cases: DTP human tumour cell line panel, 48 h
[1] = test system: SK-MEL-5
[2] = test system: RPMI-8226
[3] = test system: SF-295
[4] = test system: OVCAR-3
[5] = test system: CCRF-CEM
[6] = test system: SNB-75
[7] = test system: IGROV-1
[8] = test system: Malme-3M
[9] = test system: COLO 205
[10] = test system: HCT-116
[11] = test system: U-251
[12] = test system: MOLT-4
[13] = test system: RXF 393
[14] = test system: UO-31
[15] = test system: SF-539
[16] = test system: DU-145
[17] = test system: HL-60
[18] = test system: UACC-257
[19] = test system: NCI-H460
[20] = test system: SK-OV-3
[21] = test system: OVCAR-8
[22] = test system: SNB-19
[23] = test system: NCI-H23
[24] = test system: LOX IMVI
[25] = test system: UACC-62
[26] = test system: Hs-578T
[27] = test system: HOP-62
[28] = test system: NCI/ADR-RES
[29] = test system: SK-MEL-2
[30] = test system: SN12C
[31] = test system: M14
[32] = test system: SR
[33] = test system: ACHN
[34] = test system: HOP-92
[35] = test system: SW-620
[36] = test system: OVCAR-5
[37] = test system: MDA-MB-231
[38] = test system: MDA-N
[39] = test system: HCC 2998
[40] = test system: HCT-15
[41] = test system: NCI-H522
[42] = test system: CAKI-1
[43] = test system: K562
[44] = test system: NCI-H226
[45] = test system: MDA-MB-435
[46] = test system: T47D
[47] = test system: HT-29
[48] = test system: SF-268
[49] = test system: TK-10
[50] = test system: MCF7
[51] = test system: PC-3
[52] = test system: EKVX
[53] = test system: 786-0
[54] = test system: KM12
[55] = test system: A498
[56] = test system: SK-MEL-28
[57] = test system: OVCAR-4
[58] = test system: A549

CCCN1CN(c2ccccc2)C2(CCN(CCCC(=O)c3ccc(F)cc3)CC2)C1=O
GI50 [1]: 1.44 µM (inactive) | GI50 [2]: 12.4 µM (inactive) | GI50 [3]: 11 µM (inactive) | GI50 [4]: 13.8 µM (inactive) | GI50 [5]: 0.991 µM (active) | GI50 [6]: 15 µM (inactive) | GI50 [7]: 2.54 µM (inactive) | GI50 [8]: 14.9 µM (inactive) | GI50 [9]: 0.169 µM (active) | GI50 [10]: 2.18 µM (inactive) | GI50 [11]: 14.7 µM (inactive) | GI50 [12]: 4.2 µM (inactive) | GI50 [13]: 16.8 µM (inactive) | GI50 [14]: 11.8 µM (inactive) | GI50 [15]: 4.49 µM (inactive) | GI50 [16]: 1.53 µM (inactive) | GI50 [17]: 16.6 µM (inactive) | GI50 [18]: 0.405 µM (active) | GI50 [19]: 12.7 µM (inactive) | GI50 [20]: 19.1 µM (inactive) | GI50 [21]: 16.7 µM (inactive) | GI50 [22]: 13.2 µM (inactive) | GI50 [23]: 4.12 µM (inactive) | GI50 [24]: 4.41 µM (inactive) | GI50 [25]: 16.3 µM (inactive) | GI50 [26]: 13.2 µM (inactive) | GI50 [27]: 2.7 µM (inactive) | GI50 [28]: 4.53 µM (inactive) | GI50 [29]: 11.6 µM (inactive) | GI50 [30]: 2.94 µM (inactive) | GI50 [31]: 12.4 µM (inactive) | GI50 [32]: 16.6 µM (inactive) | GI50 [33]: 2.13 µM (inactive) | GI50 [34]: 3.41 µM (inactive) | GI50 [35]: 5.15 µM (inactive) | GI50 [36]: 5.06 µM (inactive) | GI50 [37]: 6.93 µM (inactive) | GI50 [38]: 9.38 µM (inactive) | GI50 [39]: 7.82 µM (inactive) | GI50 [40]: 4.31 µM | GI50 [41]: 20.3 µM (inactive) | GI50 [42]: 4.61 µM (inactive) | GI50 [43]: 16.3 µM (inactive) | GI50 [44]: 6.47 µM (inactive) | GI50 [45]: 11 µM (inactive) | GI50 [46]: 4.61 µM (inactive) | GI50 [47]: 0.631 µM (active) | GI50 [48]: 5.56 µM (inactive) | GI50 [49]: 6.62 µM (inactive) | GI50 [50]: 0.6 µM (active) | GI50 [51]: 10.2 µM (inactive) | GI50 [52]: 14 µM (inactive) | GI50 [53]: 5.15 µM (inactive) | GI50 [54]: 16.3 µM (inactive) | GI50 [55]: 0.933 µM (active) | GI50 [56]: 19.2 µM (inactive) | GI50 [57]: 2.48 µM (inactive) | GI50 [58]: 6.61 µM (inactive)

COc1ccc(N2C(=O)C(=O)N(c3ccc(/N=N\c4ccccc4)cc3)C2=S)cc1
GI50 [1]: 16.7 µM (inactive) | GI50 [2]: 40.7 µM (inactive) | GI50 [3]: 18.7 µM (inactive) | GI50 [5]: 35.1 µM (inactive) | GI50 [6]: 22.6 µM (inactive) | GI50 [7]: 16.6 µM (inactive) | GI50 [8]: 18.5 µM (inactive) | GI50 [9]: 17.1 µM (inactive) | GI50 [10]: 19.3 µM (inactive) | GI50 [11]: 17.1 µM (inactive) | GI50 [12]: 32.9 µM (inactive) | GI50 [13]: 17.3 µM (inactive) | GI50 [14]: 16.3 µM (inactive) | GI50 [15]: 19.2 µM (inactive) | GI50 [16]: 16 µM (inactive) | GI50 [17]: 47.3 µM (inactive) | GI50 [18]: 18.4 µM (inactive) | GI50 [19]: 18.3 µM (inactive) | GI50 [20]: 20.2 µM (inactive) | GI50 [21]: 17.9 µM (inactive) | GI50 [22]: 21.9 µM (inactive) | GI50 [23]: 18.5 µM (inactive) | GI50 [24]: 18.7 µM (inactive) | GI50 [25]: 16.6 µM (inactive) | GI50 [26]: 27.4 µM (inactive) | GI50 [27]: 18.6 µM (inactive) | GI50 [28]: 18.9 µM (inactive) | GI50 [29]: 17.9 µM (inactive) | GI50 [30]: 18 µM (inactive) | GI50 [32]: 38 µM (inactive) | GI50 [33]: 19 µM (inactive) | GI50 [34]: 16.8 µM (inactive) | GI50 [35]: 18.7 µM (inactive) | GI50 [36]: 21.1 µM (inactive) | GI50 [37]: 22.8 µM (inactive) | GI50 [38]: 19.3 µM (inactive) | GI50 [39]: 16.4 µM (inactive) | GI50 [40]: 17.2 µM | GI50 [41]: 5.37 µM (inactive) | GI50 [42]: 20.2 µM (inactive) | GI50 [43]: 37.5 µM (inactive) | GI50 [44]: 21.7 µM (inactive) | GI50 [45]: 22.8 µM (inactive) | GI50 [46]: 18.8 µM (inactive) | GI50 [47]: 18.6 µM (inactive) | GI50 [48]: 22.1 µM (inactive) | GI50 [49]: 20.7 µM (inactive) | GI50 [51]: 17.6 µM (inactive) | GI50 [52]: 17.9 µM (inactive) | GI50 [53]: 17.5 µM (inactive) | GI50 [54]: 17.5 µM (inactive) | GI50 [55]: 23.8 µM (inactive) | GI50 [56]: 23.2 µM (inactive) | GI50 [57]: 18.2 µM (inactive) | GI50 [58]: 20.2 µM (inactive)
